Source: article PMC5376326, “Inhibition of ANO1 by luteolin and its cytotoxicity in human prostate cancer PC-3 cells” (PLoS ONE, 2017)

Experiments:
LNCaP = test system: LNCaP; parameters: method as in PMID 18008333, PMID 23300633; conditions: intraperitoneal 50 mg/kg; LNCaP xenograft mouse; cited from earlier work
ANO1 = target: T1, ANO1 (Homo sapiens, UniProt Q5XXA6, DEL476-501); assay: Whole-cell patch-clamp in ANO1-expressing FRT cells; format: cell-based; conditions: 100 μM ATP, read-out: Inhibition of ANO1 chloride currents
T1 sequence (Q5XXA6 with tags, fused parts or gaps isoform Q5XXA6-5 DEL539-564): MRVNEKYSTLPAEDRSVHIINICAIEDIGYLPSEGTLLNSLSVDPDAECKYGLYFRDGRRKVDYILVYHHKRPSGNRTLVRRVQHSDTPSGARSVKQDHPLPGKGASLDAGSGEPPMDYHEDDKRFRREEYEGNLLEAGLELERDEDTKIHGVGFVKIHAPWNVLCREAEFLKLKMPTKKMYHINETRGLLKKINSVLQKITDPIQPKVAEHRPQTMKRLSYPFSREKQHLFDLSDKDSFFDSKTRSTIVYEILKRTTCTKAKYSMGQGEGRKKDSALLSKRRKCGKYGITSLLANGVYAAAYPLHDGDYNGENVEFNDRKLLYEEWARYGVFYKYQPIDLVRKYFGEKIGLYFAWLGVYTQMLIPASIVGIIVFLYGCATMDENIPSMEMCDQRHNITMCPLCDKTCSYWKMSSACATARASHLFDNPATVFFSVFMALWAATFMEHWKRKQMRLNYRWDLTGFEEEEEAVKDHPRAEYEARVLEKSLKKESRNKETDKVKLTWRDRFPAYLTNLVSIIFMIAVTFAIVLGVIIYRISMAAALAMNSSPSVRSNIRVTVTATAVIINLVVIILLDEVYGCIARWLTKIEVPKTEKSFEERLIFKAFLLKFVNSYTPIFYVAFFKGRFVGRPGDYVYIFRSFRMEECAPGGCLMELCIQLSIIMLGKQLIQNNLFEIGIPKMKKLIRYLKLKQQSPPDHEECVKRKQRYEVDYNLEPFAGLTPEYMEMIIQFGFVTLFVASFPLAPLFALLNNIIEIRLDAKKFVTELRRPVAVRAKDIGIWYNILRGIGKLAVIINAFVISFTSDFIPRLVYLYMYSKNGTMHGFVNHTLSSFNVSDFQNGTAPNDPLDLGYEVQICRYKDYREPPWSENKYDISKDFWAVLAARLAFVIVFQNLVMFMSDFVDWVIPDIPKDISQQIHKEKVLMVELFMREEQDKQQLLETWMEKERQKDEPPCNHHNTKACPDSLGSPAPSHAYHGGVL
Experimental: Patch-clamp recordings were performed on ANO1-expressing FRT cells using the whole-cell recording configuration. The bath solution contained (in mM): 140 NMDG-Cl, 1 CaCl2, 1 MgCl2, 10 glucose and 10 HEPES (pH 7.4). The pipette solution contained (in mM): 130 CsCl, 0.5 EGTA, 1 MgCl2, 1 Tris-ATP, and 10 HEPES (pH 7.2). Pipettes were pulled from borosilicate glass and had resistances of 3–5 MΩ after fire polishing. Seal resistances were between 3 and 10 GΩ. The liquid junction potential (~2.4 mV) was not corrected. After establishing the whole-cell configuration, whole-cell capacitance and series resistance were compensated with the amplifier circuitry. After establishing the whole-cell configuration, ANO1 was activated by ATP (100 μM). Whole-cell currents were elicited by applying hyperpolarizing and depolarizing voltage pulses from a holding potential of 0 mV to potentials between -80 mV and +80 mV in steps of 20 mV. Recordings were made at room temperature using an Axopatch-200B (Axon Instruments, Union City, CA). Currents were digitized and analyzed using a Digidata 1440A converter (Axon Instruments), and pCLAMP 10.2 software (Molecular Devices, Sunnyvale, CA). Currents were low-pass filtered at 1 kHz and sampled at 5 kHz.

O=c1cc(-c2ccc(O)c(O)c2)oc2cc(O)cc(O)c12 [luteolin]
Volume and weight of solid tumors (LNCaP): significantly decreased
inhibition at 10 µM (ANO1; 10 μM): 55.3 ± 2.8%
inhibition at 100 µM (ANO1; 100 μM): 99.2 ± 0.2%
